# Results reported in patent US20230131339A1, “EPI-X4 BASED PEPTIDES AND DERIVATIVES THEREOF” (Universitaet Ulm, priority 2020, published 2023).
# Where a SMILES comes first, the peptide text is derived from it. Where no end group is shown, it is not given here. Side-chain parts run from the residue outwards. [ ]: non-standard residue; d: D form. The star is where a group is joined. Palmitoyl = CCCCCCCCCCCCCCCC(=O)*; Glu = glutamate linker
# T1: CXC chemokine receptor type 4 (CXCR4) (human, UniProt P61073 1-352)
# T1 chain: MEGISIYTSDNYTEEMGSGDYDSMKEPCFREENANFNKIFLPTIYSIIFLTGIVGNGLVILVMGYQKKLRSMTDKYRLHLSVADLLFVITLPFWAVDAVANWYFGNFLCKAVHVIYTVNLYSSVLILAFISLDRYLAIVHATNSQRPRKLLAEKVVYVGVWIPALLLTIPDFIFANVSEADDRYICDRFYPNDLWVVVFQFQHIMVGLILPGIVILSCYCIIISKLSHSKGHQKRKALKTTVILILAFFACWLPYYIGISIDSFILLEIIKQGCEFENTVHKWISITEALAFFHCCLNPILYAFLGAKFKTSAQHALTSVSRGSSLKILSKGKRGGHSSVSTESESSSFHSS
# Columns and labels:
# [1] = test system: CXCL12-induced ERK signaling; test: ERK/AKT signaling assay in SupT1 cells: ERK phosphorylation; format: cell-based
# Procedure: (§1) Third, the activity of the claimed EPI-X4 derivatives was tested by the effect on CXCL12/CXCR4-mediated ERK (Extracellular-signal Regulated Kinases) and AKT (a serine/threonine-protein kinase) signaling (FIG. 3). In that assay CXCR4 expressing cells are stimulated with the CXCR4 chemokine-ligand CXCL12, which subsequently leads to phosphorylation of ERK and AKT. Preincubation of cells with CXCR4-antagonists blocks those pathways. […] Two or three independent experiments were carried out in triplicates for each peptide in each assay. The error bars refer to the standard deviation.
# (§2) ERK/AKT signaling assay. CXCL12 induced ERK and AKT phosphorylation was determined in SupT1 cells. For this, 100,000 cells were seeded per well in a 96-V well plate in 100 μl medium supplemented with 1% FCS. Cells were incubated for 2 hours at 37° C. before 5 μl of compounds were added. After 15 min incubation at 37° C. cells were stimulated by adding 5 μl CXCL12 diluted in PBS to reach a final concentration of 100 ng/ml. Cells were further incubated for 2 min before the reaction was stopped by adding 20 μl of 10% PFA. Cells were fixed for 15 min at 4° C. before PFA was removed and cells permeabilized by adding 100 μl ice cold methanol. After 15 min at 4° C. the methanol was removed, cells were washed and 30 μl primary antibody was added (phospho-p44/42 MAPK (Erk1) (Tyr204)/(Erk2) (Tyr187) (D1H6G) mouse mAb #5726; phosphor-Akt (Ser473) (193H12) rabbit mAb #4058 Cell Signaling) for 1 hour at 4° C. After the antibody was removed and cells were washed secondary antibody was added for 30 min. Cells were washed afterwards and subsequently analyzed by flow cytometry.
# [2] = test system: CXCL12-induced AKT signaling; test: ERK/AKT signaling assay in SupT1 cells: AKT phosphorylation; format: cell-based
# Procedure: as §1, §2
# [3] = Functional stability assay in human plasma; conditions: human, plasma
# Procedure: Fourth, the stability of peptides in human plasma and whole human blood was tested (FIG. 4). The functional stability of EPI-X4 (SEQ ID NO.: 1) derivatives was screened using a CXCR4 antibody-based screening approach. Peptides were diluted in full human plasma or blood (>99%) and the functional activity was then measured after either 2 hours or 8 hours and compared to a sample that was not incubated in plasma or blood.
# In this test, the peptides were incubated in human plasma for a certain time period.
# Stability assay. Whole blood was collected from healthy donors in EDTA tubes and directly used or subsequently centrifuged for 15 min at 2,500×g to obtain plasma. Plasma from 6 donors was pooled and stored in aliquots at −80° C. Compounds were 200-fold diluted in human plasma or whole human blood to reach final concentrations of 20 μM. The t=0 sample was immediately taken and stored at −80° C. Plasma/compound or blood/compound mixture was then transferred to 37° C. and shook at 350 rpm. At given time points samples were taken and stored at −80° C.°. For measuring the functional activity of the plasma/peptide samples, the mixtures were thawed and diluted in ice cold PBS. 12G5-APC antibody competition was then performed as described before. For blood/peptide functional stability, samples were thawed and centrifuged at 14,000 rpm to remove cells and debris. The supernatant was then diluted in PBS and 12G5-antibody competition assay was performed. After the 2 hours incubation, the cells were washed and 50 μl of 1-step-Fix/Lyse solution (Thermo Fisher #00-5333-54) was added for 15 minutes at room temperature. Afterwards cells were washed again and analyzed for bound antibody.
# [4] = test system: CXCL12 induced migration of T-cells; test: Migration assay (transwell, Jurkat cells); format: cell-based
# Procedure: For each peptide, three independent experiments were performed. The error bars refer to the standard deviation.
# Migration assay. Migration assays were performed using 96-well transwell assay plates (Corning Incorporated, Kennebunk, Me., USA) with 5 μm polycarbonate filters. […] Next, 75 μL (0.5×10^5 cells) of Jurkat cells (in assay buffer), together with/without the compounds, were added into the upper chambers. After 4 h at 37° C. (5% CO2), 100 μL of the lower chambers were transferred to a fresh 96 V-well plate and analyzed with Cell-Titer-Glo® assay (Promega, Madison, Wis., USA). The percentage of migrated cells was calculated as described by Balabanian et al. (2005). In order to obtain the relative migration in %, the percentage of migrated cells were normalized to the CXCL12-only control.
# [5] = test system: CXCL12 induced Ca2+-signalling; test: Ca++ signaling in BCR-ABL-transformed murine bone marrow cells; format: cell-based; conditions: 1 μM
# Procedure: Fifth, it was shown that the peptide derivatives inhibit calcium-signaling. CXCL12 stimulation of CXCR4 expressing B-cells leads to a strong calcium-release. In the presence of CXCR4 antagonists this response is reduced.
# For calcium measurement, 1×10^6 BCR-ABL-transformed murine bone marrow cells were incubated with 5 μg/mL of Indo-1 (Molecular Probes) and 0.5 μg/mL of pluronic F-127 (Molecular Probes) in Iscove's medium supplemented with 1% FCS (Pan Biotech) at 37° C. for 45 min. Cells were then washed by centrifugation and the cell pellets were resuspended in Iscove's medium with 1% FCS and treated with the EPI-X4 derivatives (1 μM or 0.5 μM) for 10 minutes at room temperature. Cells were pre-warmed for 5 minutes at 37° C. Calcium flux was assessed by FACS measurement at BD LSR Fortessa. After 30 seconds of baseline recording, CXCR4-dependent calcium signaling was determined by stimulating with 100 ng/ml of mouse SDF-1a (PeproTech).
# [6] = biological target: T1, CXC chemokine receptor type 4 (CXCR4); test: 12G5 antibody competition
# [7] = biological target: T2, CXC chemokine receptor type 4 (CXCR4) (human, UniProt P61073 1-352); test: 12G5-APC antibody competition on SupT1 cells, flow cytometry
# T2 construct: whole, on cells
# Procedure: To the right of the diagrams, an assignment of the curves to the tested peptides is explained. […] Three independent experiments were carried out for each peptide in each assay. The error bars refer to the standard deviation.
# Antibody competition assay. Competition of compounds with antibody binding was performed on SupT1 cells. For that cells were washed in PBS containing 1% FCS and 50,000 cells were then seeded per well in a 96 V-well plate. Buffer was removed and plates were precooled at 4° C. […] The antibody was used at a concentration closed to its determined Kd. 15 μl compounds were then added to the cells and 15 μl antibody immediately afterwards. Plates were incubated at 4° C. in the dark for 2 hours. Afterwards cells were washed twice with PBS containing 1% FCS and fixed with 2% PFA. Antibody binding was analyzed by flow cytometry (FACS CytoFLEX; Beckman Coulter®).
# [8] = biological target: T2, CXC chemokine receptor type 4 (CXCR4); test: cell-based or functional assay
# [9] = biological target: T1, CXC chemokine receptor type 4 (CXCR4); test: competition
molecule,measurement,setting,value
CC[C@H](C)[C@H](N)C(=O)N[C@@H](CC(C)C)C(=O)N[C@@H](CCCNC(=N)N)C(=O)N[C@@H](Cc1c[nH]c2ccccc12)C(=O)N[C@@H](CO)C(=O)N[C@@H](CCCNC(=N)N)C(=O)N[C@@H](CCCCN)C(=O)N[C@@H](CCSC)C(=O)N1CCC[C@H]1C(=O)N[C@@H](CS)C(=O)N[C@@H](CC(C)C)C(=O)N[C@@H](CO)C(=O)O [JM #18] (H-ILRWSRKMPCLS-OH; C-terminus assumed),reduction of CXCL12-induced ERK signaling,[1]; 0.1 μM,about 40%
same,reduction of CXCL12-induced ERK signaling,[1]; 1 μM,~70%
same,reduction of CXCL12-induced AKT signaling,[2]; 0.1 μM,about 40%
same,reduction of CXCL12-induced AKT signaling,[2]; 1 μM,~70%
"CC[C@H](C)[C@H](N)C(=O)N[C@@H](CC(C)C)C(=O)N[C@@H](CCCNC(=N)N)C(=O)N[C@@H](Cc1c[nH]c2ccccc12)C(=O)N[C@@H](CO)C(=O)N[C@@H](CCCNC(=N)N)C(=O)N[C@@H](CCCCN)C(N)=O [JM #118, ILRWSRK-NH2] (H-ILRWSRK-NH2)",functional stability in human plasma (in words),[3],rapidly inactivated in plasma
same,inhibition of CXCL12 induced migration of T-cells (in words),[4],even more effective than the full-length peptide
"CCCCCCCCCCCCCCCC(=O)NCCCC[C@H](NC(=O)[C@H](CCCNC(=N)N)NC(=O)[C@H](CO)NC(=O)[C@H](Cc1c[nH]c2ccccc12)NC(=O)[C@H](CCCNC(=N)N)NC(=O)[C@H](CC(C)C)NC(=O)[C@@H](N)[C@@H](C)CC)C(N)=O [JM #170, ILRWSRK(Pal)-NH2] (H-ILRWSRK(Palmitoyl)-NH2)",reduction of CXCL12 induced calcium-signaling,[5],almost completely blocked calcium-signaling
CC[C@H](C)[C@H](N)C(=O)N[C@@H](CC(C)C)C(=O)N[C@@H](CCCNC(=N)N)C(=O)N[C@@H](Cc1c[nH]c2ccccc12)C(=O)N[C@@H](CO)C(=O)N[C@@H](CCCNC(=N)N)C(=O)N[C@@H](CCCCN)C(=O)N[C@@H](CC(C)C)C(=O)N1CCC[C@H]1C(N)=O [JM #114] (H-ILRWSRKLP-NH2),functional stability in human plasma (in words),[3],rapidly inactivated in plasma
same,inhibition of CXCL12 induced migration of T-cells (in words),[4],even more effective than the full-length peptide
"CCCCCCCCCCCCCCCC(=O)NCCCC[C@H](NC(=O)[C@H](CCCCN)NC(=O)[C@H](CO)NC(=O)[C@H](Cc1c[nH]c2ccccc12)NC(=O)[C@H](CCCNC(=N)N)NC(=O)[C@@H](NC(=O)[C@@H](N)[C@@H](C)CC)C(C)C)C(=O)N[C@H](C(=O)N1CCC[C@H]1C(=O)N[C@@H](CS)C(=O)N[C@H](C(=O)N[C@@H](CO)C(=O)O)C(C)C)C(C)C [JM #169, IVRWSKK(Pal)VPCVS] (H-IVRWSKK(Palmitoyl)VPCVS-OH; C-terminus assumed)",reduction of CXCL12-induced ERK signaling,[1]; 0.1 μM,over 70%
same,reduction of CXCL12-induced ERK signaling,[1]; 1 μM,almost completely blocked
same,reduction of CXCL12-induced AKT signaling,[2]; 0.1 μM,85%
same,reduction of CXCL12-induced AKT signaling,[2]; 1 μM,completely
[dL]MRWSRKMPCVS [JM#36],IC50,[6],305 nM
IVRWSKK(Palmitoyl)VP-NH2 (N-terminus assumed; SMILES CCCCCCCCCCCCCCCC(=O)NCCCC[C@H](NC(=O)[C@H](CCCCN)NC(=O)[C@H](CO)NC(=O)[C@H](Cc1c[nH]c2ccccc12)NC(=O)[C@H](CCCNC(=N)N)NC(=O)[C@@H](NC(=O)[C@@H](N)[C@@H](C)CC)C(C)C)C(=O)N[C@H](C(=O)N1CCC[C@H]1C(N)=O)C(C)C) [JM#167],fold more effective binding than EPI-X4,[7],> 2000 fold
same,fold more effective than WSC02,[7],~300 fold
ILRWSRK(Ac)LPCVS [JM#200],"IC50, HIV inhibition assay",[8],50 to 150 nM
same,IC50,[9],213 nM
[dL]MRWSRK(Palmitoyl)MP-NH2 (N-terminus assumed; SMILES CCCCCCCCCCCCCCCC(=O)NCCCC[C@H](NC(=O)[C@H](CCCNC(=N)N)NC(=O)[C@H](CO)NC(=O)[C@H](Cc1c[nH]c2ccccc12)NC(=O)[C@H](CCCNC(=N)N)NC(=O)[C@H](CCSC)NC(=O)[C@H](N)CC(C)C)C(=O)N[C@@H](CCSC)C(=O)N1CCC[C@H]1C(N)=O) [JM#178],fold more effective binding than EPI-X4,[7],> 2000 fold
same,fold more effective than WSC02,[7],~300 fold
same,"IC50, HIV inhibition assay",[8],5 to 10 nM
[dI]LRWSRKLP-NH2 [JM#174],IC50,[6],480 nM
same,"IC50, HIV inhibition assay",[8],> 150 nM
[dL]MRWSRKK([Glu-Palmitoyl])-NH2 [JM#195],IC50,[6],3 nM
[dM]LRWSRKK([Glu-Palmitoyl])-NH2 [JM#197],IC50,[6],5 nM
ILRWSRK([Glu-Palmitoyl])-NH2 [JM#192],IC50,[9],4 nM
